Measured values reported in US8802597B2, “Herbicidal pyrimidines” (E I du Pont de Nemours and Company, priority 2003, dated 2014).

Tests used:
Format in all cases: in vivo
[1] = test system: downy bromegrass (Bromus tectorum); test: Test G pre/postemergence; settings: Preemergence
How it was run: (§1)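 Seeds or nutlets were planted and treated preemergence with compound formulated in a non-phytotoxic solvent mixture containing surfactant; plants 2 to 18 cm tall (1- to 4-leaf stage) received postemergence sprays of the same formulation. After 12 to 21 days in a greenhouse, injury was rated visually against untreated controls on a 0–100 scale (100 = complete control).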

[2] = test system: Italian ryegrass (Lolium multiflorum); test: Test G pre/postemergence; settings: Preemergence
How it was run: as §1

[3] = test system: tropical spiderwort (Commelina benghalensis); test: Test G pre/postemergence; settings: Preemergence
How it was run: as §1

[4] = test system: johnsongrass (Sorghum halepense); test: Test G pre/postemergence; settings: Preemergence
How it was run: as §1

kochia (Kochia scoparia) = test: Test D pre/postemergence; settings: scale 0 to 100 (100 = complete control)
How it was run: (§2)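 Seeds planted and treated preemergence with test chemicals in a non-phytotoxic solvent mixture containing surfactant; postemergence sprays, same formulation, applied concurrently to plants 2 to 18 cm tall (1- to 4-leaf stage). Kept in a controlled growth environment 15 to 25 days, then visually rated against controls on a 0 to 100 scale (0 no effect, 100 complete control).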

[5] = test system: catchweed bedstraw (galium; Galium aparine); test: Test D pre/postemergence; settings: scale 0 to 100 (100 = complete control)
How it was run: as §2

[6] = test system: wild mustard (Sinapis arvensis); test: Test D pre/postemergence; settings: scale 0 to 100 (100 = complete control)
How it was run: as §2

[7] = test system: pigweed (Amaranthus retroflexus); test: Test D pre/postemergence; settings: scale 0 to 100 (100 = complete control)
How it was run: as §2

[8] = test system: wheat (Triticum aestivum); test: Test D pre/postemergence; settings: scale 0 to 100 (100 = complete control)
How it was run: as §2

[9] = test system: common chickweed (Stellaria media); test: Test D pre/postemergence; settings: scale 0 to 100 (100 = complete control)
How it was run: as §2

[10] = test system: lambsquarters (Chenopodium album); test: Test D pre/postemergence; settings: scale 0 to 100 (100 = complete control)
How it was run: as §2

[11] = test system: Russian thistle (Salsola kali); test: Test D pre/postemergence; settings: scale 0 to 100 (100 = complete control)
How it was run: as §2

[12] = test system: wild buckwheat (Polygonum convolvulus); test: Test D pre/postemergence; settings: scale 0 to 100 (100 = complete control)
How it was run: as §2

SMILES: COC(=O)c1nc(C2CC2)nc(N)c1Cl [Compound 9, methyl 6-amino-5-chloro-2-cyclopropyl-4-pyrimidinecarboxylate]
- Plant response rating, Bromegrass, Downy ([1]; 62 g ai/ha, scale 0-100): 10
- Plant response rating, Bromegrass, Downy ([1]; 125 g ai/ha, scale 0-100): 50
- Plant response rating, Bromegrass, Downy ([1]; 250 g ai/ha, scale 0-100): 70
- Plant response rating, Bromegrass, Downy ([1]; 500 g ai/ha, scale 0 to 100): 100
- Plant response rating, Ryegrass, Italian ([2]; 62 g ai/ha, scale 0-100): 20
- Plant response rating, Ryegrass, Italian ([2]; 125 g ai/ha, scale 0-100): 50
- Plant response rating, Ryegrass, Italian ([2]; 250 g ai/ha, scale 0-100): 75
- Plant response rating, Ryegrass, Italian ([2]; 500 g ai/ha, scale 0 to 100): 80
- Plant response rating, Spiderwort ([3]; 62 g ai/ha, scale 0-100): 100
- Plant response rating, Spiderwort ([3]; 125 g ai/ha, scale 0-100): 100
- Plant response rating, Spiderwort ([3]; 250 g ai/ha, scale 0-100): 100
- Plant response rating, Spiderwort ([3]; 500 g ai/ha, scale 0 to 100): 100
- Plant response rating, Johnsongrass ([4]; 62 g ai/ha, scale 0-100): 40
- Plant response rating, Johnsongrass ([4]; 125 g ai/ha, scale 0-100): 80
- Plant response rating, Johnsongrass ([4]; 250 g ai/ha, scale 0-100): 95
- Plant response rating, Johnsongrass ([4]; 500 g ai/ha, scale 0 to 100): 95
- Plant response rating, Kochia (kochia (Kochia scoparia); Postemergence, 16 g ai/ha): 85
- Plant response rating, Kochia (kochia (Kochia scoparia); Postemergence, 31 g ai/ha): 100
- Plant response rating, Kochia (kochia (Kochia scoparia); Postemergence, 62 g ai/ha): 100
- Plant response rating, Kochia (kochia (Kochia scoparia); Postemergence, 125 g ai/ha): 100
- Plant response rating, Kochia (kochia (Kochia scoparia); Preemergence, 16 g ai/ha): 70
- Plant response rating, Kochia (kochia (Kochia scoparia); Preemergence, 31 g ai/ha): 98
- Plant response rating, Kochia (kochia (Kochia scoparia); Preemergence, 62 g ai/ha): 100
- Plant response rating, Kochia (kochia (Kochia scoparia); Preemergence, 125 g ai/ha): 100
- Plant response rating, Galium ([5]; Postemergence, 16 g ai/ha): 100
- Plant response rating, Galium ([5]; Postemergence, 31 g ai/ha): 100
- Plant response rating, Galium ([5]; Postemergence, 62 g ai/ha): 100
- Plant response rating, Galium ([5]; Postemergence, 125 g ai/ha): 100
- Plant response rating, Galium ([5]; Preemergence, 16 g ai/ha): 85
- Plant response rating, Galium ([5]; Preemergence, 31 g ai/ha): 100
- Plant response rating, Galium ([5]; Preemergence, 62 g ai/ha): 100
- Plant response rating, Galium ([5]; Preemergence, 125 g ai/ha): 100
- Plant response rating, Mustard, Wild ([6]; Postemergence, 16 g ai/ha): 65
- Plant response rating, Mustard, Wild ([6]; Postemergence, 31 g ai/ha): 80
- Plant response rating, Mustard, Wild ([6]; Postemergence, 62 g ai/ha): 80
- Plant response rating, Mustard, Wild ([6]; Postemergence, 125 g ai/ha): 95
- Plant response rating, Mustard, Wild ([6]; Preemergence, 16 g ai/ha): 60
- Plant response rating, Mustard, Wild ([6]; Preemergence, 31 g ai/ha): 70
- Plant response rating, Mustard, Wild ([6]; Preemergence, 62 g ai/ha): 85
- Plant response rating, Mustard, Wild ([6]; Preemergence, 125 g ai/ha): 85
- Plant response rating, Pigweed ([7]; Postemergence, 16 g ai/ha): 65
- Plant response rating, Pigweed ([7]; Postemergence, 31 g ai/ha): 100
- Plant response rating, Pigweed ([7]; Postemergence, 62 g ai/ha): 100
- Plant response rating, Pigweed ([7]; Postemergence, 125 g ai/ha): 100
- Plant response rating, Pigweed ([7]; Preemergence, 16 g ai/ha): 65
- Plant response rating, Pigweed ([7]; Preemergence, 31 g ai/ha): 80
- Plant response rating, Pigweed ([7]; Preemergence, 62 g ai/ha): 100
- Plant response rating, Pigweed ([7]; Preemergence, 125 g ai/ha): 100
- Plant response rating, Wheat ([8]; Postemergence, 16 g ai/ha): 50
- Plant response rating, Wheat ([8]; Postemergence, 31 g ai/ha): 80
- Plant response rating, Wheat ([8]; Postemergence, 62 g ai/ha): 90
- Plant response rating, Wheat ([8]; Postemergence, 125 g ai/ha): 100
- Plant response rating, Wheat ([8]; Preemergence, 16 g ai/ha): 60
- Plant response rating, Wheat ([8]; Preemergence, 31 g ai/ha): 75
- Plant response rating, Wheat ([8]; Preemergence, 62 g ai/ha): 75
- Plant response rating, Chickweed ([9]; Postemergence, 16 g ai/ha): 60
- Plant response rating, Chickweed ([9]; Postemergence, 31 g ai/ha): 100
- Plant response rating, Chickweed ([9]; Postemergence, 62 g ai/ha): 100
- Plant response rating, Chickweed ([9]; Postemergence, 125 g ai/ha): 100
- Plant response rating, Chickweed ([9]; Preemergence, 16 g ai/ha): 65
- Plant response rating, Chickweed ([9]; Preemergence, 31 g ai/ha): 95
- Plant response rating, Chickweed ([9]; Preemergence, 62 g ai/ha): 100
- Plant response rating, Chickweed ([9]; Preemergence, 125 g ai/ha): 100
- Plant response rating, Lambsquarters ([10]; Postemergence, 16 g ai/ha): 95
- Plant response rating, Lambsquarters ([10]; Postemergence, 31 g ai/ha): 100
- Plant response rating, Lambsquarters ([10]; Postemergence, 62 g ai/ha): 100
- Plant response rating, Lambsquarters ([10]; Postemergence, 125 g ai/ha): 100
- Plant response rating, Lambsquarters ([10]; Preemergence, 16 g ai/ha): 65
- Plant response rating, Lambsquarters ([10]; Preemergence, 31 g ai/ha): 100
- Plant response rating, Lambsquarters ([10]; Preemergence, 62 g ai/ha): 100
- Plant response rating, Lambsquarters ([10]; Preemergence, 125 g ai/ha): 100
- Plant response rating, Russian Thistle ([11]; Postemergence, 16 g ai/ha): 65
- Plant response rating, Russian Thistle ([11]; Postemergence, 31 g ai/ha): 90
- Plant response rating, Russian Thistle ([11]; Postemergence, 62 g ai/ha): 100
- Plant response rating, Russian Thistle ([11]; Postemergence, 125 g ai/ha): 100
- Plant response rating, Russian Thistle ([11]; Preemergence, 16 g ai/ha): 100
- Plant response rating, Russian Thistle ([11]; Preemergence, 31 g ai/ha): 100
- Plant response rating, Russian Thistle ([11]; Preemergence, 62 g ai/ha): 100
- Plant response rating, Russian Thistle ([11]; Preemergence, 125 g ai/ha): 100
- Plant response rating, Buckwheat, Wild ([12]; Postemergence, 16 g ai/ha): 65
- Plant response rating, Buckwheat, Wild ([12]; Postemergence, 31 g ai/ha): 80
- Plant response rating, Buckwheat, Wild ([12]; Postemergence, 62 g ai/ha): 100
- Plant response rating, Buckwheat, Wild ([12]; Postemergence, 125 g ai/ha): 100
- Plant response rating, Buckwheat, Wild ([12]; Preemergence, 16 g ai/ha): 60
- Plant response rating, Buckwheat, Wild ([12]; Preemergence, 31 g ai/ha): 85
- Plant response rating, Buckwheat, Wild ([12]; Preemergence, 62 g ai/ha): 100
- Plant response rating, Buckwheat, Wild ([12]; Preemergence, 125 g ai/ha): 100
